The values that follow come from ChEMBL document CHEMBL1121921, “Synthesis and evaluation of the male antifertility properties of a series of N-unsubstituted sulfamates” (1981).

Structures are written as SMILES.

Holding throughout (assay type): functional
Assay [1] deals with Rattus norvegicus. Kind of assay: Compound was evaluated for male antifertility activity by oral administration in propylene glycol to male Sprague-Dawley rats for 14 consecutive days at dose of 0.64 mmol/kg.
Assay [2] concerns Rattus norvegicus. Kind of assay: Compound was evaluated for male antifertility activity by oral administration in propylene glycol to male Sprague-Dawley rats for 14 consecutive days at dose of 0.43 mmol/kg.
The subject of assay [3] is Rattus norvegicus. Kind of assay: Compound was evaluated for male antifertility activity by oral administration in propylene glycol to male Sprague-Dawley rats for 14 consecutive days at dose of 0.40 mmol/kg.
The test system of assay [4] is Rattus norvegicus. Kind of assay: Compound was evaluated for male antifertility activity by oral administration in propylene glycol to male Sprague-Dawley rats for 14 consecutive days at dose of 0.07 mmol/kg.
Assay [5] relates to Rattus norvegicus. Kind of assay: Compound was evaluated for male antifertility activity by oral administration in propylene glycol to male Sprague-Dawley rats for 14 consecutive days at dose of 0.05 mmol/kg.
In assay [6] the test system is Rattus norvegicus. Kind of assay: Compound was evaluated for male antifertility activity by oral administration in propylene glycol to male Sprague-Dawley rats for 14 consecutive days at dose of 0.09 mmol/kg.
Assay [7] concerns Rattus norvegicus. Kind of assay: Compound was evaluated for male antifertility activity by oral administration in propylene glycol to male Sprague-Dawley rats for 14 consecutive days at dose of 0.36 mmol/kg.
The subject of assay [8] is Rattus norvegicus. Kind of assay: Compound was evaluated for male antifertility activity by oral administration in propylene glycol to male Sprague-Dawley rats for 14 consecutive days at dose of 0.30 mmol/kg.
Assay [9] deals with Rattus norvegicus. Kind of assay: Compound was evaluated for male antifertility activity by oral administration in propylene glycol to male Sprague-Dawley rats for 14 consecutive days at dose of 0.04 mmol/kg.
Assay [10] has as its system Rattus norvegicus. Kind of assay: Compound was evaluated for male antifertility activity by oral administration in propylene glycol to male Sprague-Dawley rats for 14 consecutive days at dose of 0.18 mmol/kg.
Assay [11] concerns Rattus norvegicus. Kind of assay: Compound was evaluated for male antifertility activity by oral administration in propylene glycol to male Sprague-Dawley rats for 14 consecutive days at dose of 0.68 mmol/kg.
Assay [12] deals with Rattus norvegicus. Kind of assay: Compound was evaluated for male antifertility activity by oral administration in propylene glycol to male Sprague-Dawley rats for 14 consecutive days at dose of 0.34 mmol/kg.

As for `NS(=O)(=O)OCCCOS(N)(=O)=O`, in the assay on Rattus norvegicus [1], the No. of implants/pregnancy amounted to 6.7, the “No. of males cohabited” value is 5, the “No. of males mated” value worked out at 5 and the Resorbing implants is 94.4%. Moreover, in the assay with Rattus norvegicus [2], the No. of implants/pregnancy amounted to 9.3, the “No. of males cohabited” value is 5, the “No. of males fertile” value is given as 4 and the “No. of males mated” value is given as 5. Besides, the Resorbing implants with Rattus norvegicus [2] is reported as 73.6%.

`CC(OS(N)(=O)=O)C(C)OS(N)(=O)=O` (stereo not drawn): in the assay on Rattus norvegicus [3], the No. of implants/pregnancy is 15, the “No. of males cohabited” value was 4, the “No. of males fertile” value turned out to be 3 and the “No. of males mated” value is 3. The compound also gave a Resorbing implants in the assay with Rattus norvegicus [3] of 0%.

For the compound `CS(=O)(=O)OCCOS(C)(=O)=O` [ETHANE DIMETHANE SULFONATE], in the assay on Rattus norvegicus [4], the No. of implants/pregnancy is reported as 12.3, the “No. of males cohabited” value came to 5, the “No. of males fertile” value is reported as 3 and the “No. of males mated” value came to 4. This compound also had a Resorbing implants in the assay on Rattus norvegicus [4] of 30.3%. For the same compound, in the assay on Rattus norvegicus [5], the No. of implants/pregnancy was 9.9, the “No. of males cohabited” value is on record as 7, the “No. of males fertile” value turned out to be 6 and the “No. of males mated” value amounted to 7. In the assay on Rattus norvegicus [5], this compound showed a Resorbing implants of 35.2%. For the same compound, in the assay with Rattus norvegicus [6], the “No. of males cohabited” value is 5, the “No. of males fertile” value stood at 0 and the “No. of males mated” value worked out at 4.

For `NS(=O)(=O)OC1CCCCC1OS(N)(=O)=O` (stereo not drawn), in the assay with Rattus norvegicus [7], the No. of implants/pregnancy came to 14, the “No. of males cohabited” value worked out at 5, the “No. of males fertile” value worked out at 5 and the “No. of males mated” value worked out at 5. Moreover, the Resorbing implants with Rattus norvegicus [7] is 4.4%.

As to `NS(=O)(=O)OCCCCCCCCCCOS(N)(=O)=O`, in the assay on Rattus norvegicus [8], the No. of implants/pregnancy is on record as 12.5, the “No. of males cohabited” value was 5, the “No. of males fertile” value came to 4 and the “No. of males mated” value was determined as 5. The Resorbing implants with Rattus norvegicus [8] was 17.3%.

With `NS(=O)(=O)OCCCCOS(N)(=O)=O`, in the assay with Rattus norvegicus [3], the “No. of males cohabited” value was 5, the “No. of males fertile” value is 0 and the “No. of males mated” value stood at 5. Also, in the assay with Rattus norvegicus [9], the No. of implants/pregnancy amounted to 10.2, the “No. of males cohabited” value is recorded as 5, the “No. of males fertile” value is recorded as 5 and the “No. of males mated” value turned out to be 5. The Resorbing implants in the assay with Rattus norvegicus [9] amounted to 56%.

Regarding `NS(=O)(=O)OCCOS(N)(=O)=O`, in the assay on Rattus norvegicus [10], the No. of implants/pregnancy was found to be 10.8, the “No. of males cohabited” value is 10, the “No. of males fertile” value is recorded as 8 and the “No. of males mated” value amounted to 9. Besides, the Resorbing implants in the assay on Rattus norvegicus [10] worked out at 40%. In the assay with Rattus norvegicus [7], the No. of implants/pregnancy came to 9.8, the “No. of males cohabited” value is 8, the “No. of males fertile” value worked out at 1 and the “No. of males mated” value came to 7. The same compound yielded a Resorbing implants in the assay with Rattus norvegicus [7] of 98.2%. In addition, in the assay on Rattus norvegicus [11], the “No. of males cohabited” value is 5, the “No. of males fertile” value is listed as 0 and the “No. of males mated” value is given as 5.

As for `CCCC(C)(COS(N)(=O)=O)COS(N)(=O)=O`, in the assay on Rattus norvegicus [12], the No. of implants/pregnancy was found to be 15.5, the “No. of males cohabited” value is given as 4, the “No. of males fertile” value is listed as 4 and the “No. of males mated” value was 4. The Resorbing implants in the assay with Rattus norvegicus [12] is on record as 12.5%.
